Reference: patent US20250353835A1, “N-TETRAZOLYL ARYL UREA-BASED DERIVATIVES, PREPARATION METHOD THEREFOR, AND USE THEREOF” (Hangzhou Yirui Pharmaceutical Technology Co., Ltd, priority 2022, published 2025)

The compounds below were run against T1, human B1R (Homo sapiens, UniProt P46663) (assay: FLIPR calcium ion flux assay, inhibitory activity against human B1R). Details: HEK293 cells stably expressing human B1R; agonist [Lys-des-Arg9]-Bradykinin 4.6 nM (EC80); FLIPR method.
T1 construct: host or cells: HEK293
T1 sequence (P46663 1-353): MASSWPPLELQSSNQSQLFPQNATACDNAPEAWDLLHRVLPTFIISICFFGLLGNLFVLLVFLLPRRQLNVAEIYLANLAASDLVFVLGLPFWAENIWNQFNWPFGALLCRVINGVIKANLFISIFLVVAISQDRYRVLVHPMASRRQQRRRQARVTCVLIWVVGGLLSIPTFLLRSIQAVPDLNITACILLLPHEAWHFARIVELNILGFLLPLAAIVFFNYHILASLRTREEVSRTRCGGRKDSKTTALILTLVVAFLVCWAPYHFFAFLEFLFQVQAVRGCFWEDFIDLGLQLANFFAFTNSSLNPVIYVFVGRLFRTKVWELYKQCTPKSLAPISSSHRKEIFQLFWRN
Assay type: cell-based
Method: The inhibitory activity of the compounds against human B1R and B2R channels was determined by calcium ion flux assay using fluorometric imaging plate reader (FLIPR method). See literatures of Lee, Chen et al. for the method. [Lee et al. 2008][Chen et al. 2011]
1. Cell culture: HEK293 recombinant cell lines (WuXi AppTec, Shanghai, China) stably expressing human B1R and B2R were cultured in DMEM (Invitrogen, Cat #11965) medium containing 10% calf serum (Excellbio, Cat #FSP500), 5 μg/ml Geneticin (Invitrogen, Cat #10131) and Penicillin/Streptomycin (Invitrogen, Cat #15140). The incubator conditions were 37° C. and ambient humidity containing 5% CO2.
2. Preparation of the cell assay plate: B1R and B2R cells were seeded in a 384-well assay plate (Greiner, Cat #781090) at a density of 20,000 cells per well (20 μl/well), and cultured overnight at 37° C. in an incubator with 5% CO2. The next day, Fluo-4 Direct™ Loading Buffer (containing 5 mM Probenicid) containing 2× (8 μM) Fluo-4 Direct (Invitrogen, Cat #F10471) was added to each of the wells. The cells were cultured at 37° C. for 50 min, and then culture for at the room temperature 10 min.
3. Preparation of the compound assay plate: The compound was dissolved in 100% DMSO to make a 30 mM stock solution and stored at −20° C. On the day of use, the stock solution of the compound was thawed at the room temperature. Each of the compounds was serially diluted at 1:5 in DMSO culture medium with a starting concentration of 30 μM for 9 concentration points on a 384-well plate. Each of compounds was diluted in duplicate for testing. [Des-Arg10]-HOE140 was used as a positive control compound, and diluted in the same manner with a starting concentration of 3 μM.
4. FLIPR assay: The cell assay plate was placed in a FLIPR instrument ([…]). The compounds in the compound assay plate were added to the corresponding wells on the cell assay plate (10 μL/well) using an automatic program. The calcium ion fluorescence signal was recorded to determine whether the compound may have agonist activity. After 10 minutes, a B1R agonist [Lys-des-Arg9]-Bradykinin2 (10 μL/well) with a final concentration of 4.6 nM (EC80) was added to each of the wells to stimulate the generation of intracellular calcium ion flux signals. The Ca^++-dependent fluorescence signal was continuously monitored at a wavelength of 538 nm to analyze the inhibitory activity of the compound.
5. Data analysis: The data was collected and analyzed by a FLIPR program. The inhibitory (or agonist) activity of the compound at each concentration was evaluated by the fluorescence peak. The IC50 values of the compounds were calculated using EXCEL and PRISM programs.
An IC50 of 14.6 nM was found for COc1ccc(-c2c(F)cc(NC(=O)N3CCC(C(C)(C)C)CC3)cc2-c2nn[nH]n2)cc1Cl [Compound 33, 4-(tert-butyl)-N-(3′-chloro-2-fluoro-4′-methoxy-6-(2H-tetrazol-5-yl)-[1,1′-biphenyl]-4-yl)piperidine-1-carboxamide] in this work.
An IC50 of 21.4 nM was found for Cn1ncc2cc(-c3c(F)cc(NC(=O)N4CCC(C(F)(F)F)CC4)cc3-c3nn[nH]n3)ccc21 [Compound 34, N-(3-fluoro-4-(1-methyl-1H-indazol-5-yl)-5-(2H-tetrazol-5-yl)phenyl)-4-(trifluoromethyl)piperidine-1-carboxamide] in this work.
An IC50 of 92.9 nM was found for COc1ccc(-c2ncc(NC(=O)N3CCC(C(C)(C)C)CC3)cc2-c2nn[nH]n2)cc1OC [Compound 35, 4-(tert-butyl)-N-(6-(3,4-dimethoxyphenyl)-5-(2H-tetrazol-5-yl)pyrid-3-yl)piperidine-1-carboxamide] in this work.
An IC50 of 48.3 nM was found for Cn1ncc2cc(-c3ncc(NC(=O)N4CCC(C(C)(C)C)CC4)cc3-c3nn[nH]n3)ccc21 [Compound 36, 4-(tert-butyl)-N-(6-(1-methyl-1H-indazol-5-yl)-5-(2H-tetrazol-5-yl)pyrid-3-yl)piperidine-1-carboxamide] in this work.
An IC50 of 72.7 nM was found for CCOC(=O)c1ncc(NC(=O)N2CCC(C(C)(C)C)CC2)cc1-c1nn[nH]n1 [Compound 37, ethyl 5-(4-(tert-butyl)piperidine-1-formamido)-3-(2H-tetrazol-5-yl)pyridylcarboxylate] in this work.
An IC50 of 83.7 nM was found for CC(C)(C)C1CCN(C(=O)Nc2cnc(C(=O)OC3CCCCC3)c(-c3nn[nH]n3)c2)CC1 [Compound 38, cyclohexyl 5-(4-(tert-butyl)piperidine-1-formamido)-3-(2H-tetrazol-5-yl)pyridylcarboxylate] in this work.
An IC50 of 82.4 nM was found for CC(C)(C)C1CCN(C(=O)Nc2ccc(-c3ccc4c(c3)OCO4)c(-c3nn[nH]n3)c2)CC1 [Compound 39, N-(4-(benzo[d][1,3]dioxolan-5-yl)-3-(2H-tetrazol-5-yl)phenyl)-4-(tert-butyl)piperidine-1-carboxamide] in this work.
An IC50 of 2040 nM was found for CC(C)(C)C1CCN(C(=O)Nc2ccc(C3CCOCC3)c(-c3nn[nH]n3)c2)CC1 [Compound 40, 4-(tert-butyl)-N-(4-(tetrahydro-2H-pyran-4-yl)-3-(2H-tetrazol-5-yl)phenyl)piperidine-1-carboxamide] in this work.
An IC50 of 448 nM was found for CC(C)(C)C1CCN(C(=O)Nc2ccc(C3C=COCC3)c(-c3nn[nH]n3)c2)CC1 (stereo not drawn) [Compound 41, 4-(tert-butyl)-N-(4-(3,4-dihydro-2H-pyran-4-yl)-3-(2H-tetrazol-5-yl)phenyl)piperidine-1-carboxamide] in this work.
An IC50 of 109 nM was found for CC(C)(C)C1CCN(C(=O)Nc2ccc(-c3ccc(C(F)F)nc3)c(-c3nn[nH]n3)c2)CC1 [Compound 42, 4-(tert-butyl)-N-(4-(6-(difluoromethyl)pyrid-3-yl)-3-(2H-tetrazol-5-yl)phenyl)piperidine-1-carboxamide] in this work.
An IC50 of 95.2 nM was found for CC(C)(C)C1CCN(C(=O)Nc2ccc(C(=O)OC3CCCC3)c(-c3nn[nH]n3)c2)CC1 [Compound 43, cyclopentyl 4-(4-(tert-butyl)piperidine-1-formamido)-2-(2H-tetrazol-5-yl)benzoate] in this work.
An IC50 of 106 nM was found for CC(C)(C)C1CCN(C(=O)Nc2ccc(C(=O)OC3CCOC3)c(-c3nn[nH]n3)c2)CC1 (stereo not drawn) [Compound 44, tetrahydrofuran-3-yl 4-(4-(tert-butyl)piperidine-1-formamido)-2-(2H-tetrazol-5-yl)benzoate] in this work.
An IC50 of 103 nM was found for CCOC(=O)c1ccc(NC(=O)N2CCC(C(C)(C)C)CC2)cc1-c1nn[nH]n1 [Compound 45, ethyl 4-(4-(tert-butyl)piperidine-1-formamido)-2-(2H-tetrazol-5-yl)benzoate] in this work.
An IC50 of 74.6 nM was found for CC(C)(C)C1CCN(C(=O)Nc2ccc(C(=O)NC3CCCC3)c(-c3nn[nH]n3)c2)CC1 [Compound 46, 4-(tert-butyl)-N-(4-(cyclopentylaminoformyl)-3-(2H-tetrazol-5-yl)phenyl)piperidine-1-carboxamide] in this work.
An IC50 of 93.9 nM was found for Cc1ccc(NC(=O)c2ccc(NC(=O)N3CCC(C(C)(C)C)CC3)cc2-c2nn[nH]n2)nc1 [Compound 47, 4-(tert-butyl)-N-(4-((5-methylpyridin-2-yl)aminoformyl)-3-(2H-tetrazol-5-yl)phenyl)piperidine-1-carboxamide] in this work.
An IC50 of 372 nM was found for COc1cncc(-c2ccc(NC(=O)N3CCC(C(C)(C)C)CC3)cc2-c2nn[nH]n2)c1 [Compound 48, 4-(tert-butyl)-N-(4-(5-methoxypyrid-3-yl)-3-(2H-tetrazol-5-yl)phenyl)piperidine-1-carboxamide] in this work.
An IC50 of 9.6 nM was found for CC(C)Oc1ccc(-c2ccc(NC(=O)N3CCC(C(C)(C)C)CC3)cc2-c2nn[nH]n2)cn1 [Compound 49, 4-(tert-butyl)-N-(4-(6-isopropoxypyrid-3-yl)-3-(2H-tetrazol-5-yl)phenyl)piperidine-1-carboxamide] in this work.
An IC50 of 54.8 nM was found for COc1cncc(-c2c(F)cc(NC(=O)N3CCC(C(C)(C)C)CC3)cc2-c2nn[nH]n2)c1 [Compound 50, 4-(tert-butyl)-N-(3-fluoro-4-(5-methoxypyrid-3-yl)-5-(2H-tetrazol-5-yl)phenyl) piperidine-1-carboxamide] in this work.
An IC50 of 17.8 nM was found for Cc1ccc(-c2ccc(NC(=O)N3CCC(C(C)(C)C)CC3)cc2-c2nn[nH]n2)cn1 [Compound 51, 4-(tert-butyl)-N-(4-(6-methylpyrid-3-yl)-3-(2H-tetrazol-5-yl)phenyl)piperidine-1-carboxamide] in this work.
An IC50 of 34.9 nM was found for Cc1cc(-c2ccc(NC(=O)N3CCC(C(C)(C)C)CC3)cc2-c2nn[nH]n2)ccn1 [Compound 52, 4-(tert-butyl)-N-(4-(2-methylpyridin-4-yl)-3-(2H-tetrazol-5-yl)phenyl)piperidine-1-carboxamide] in this work.
An IC50 of 48.1 nM was found for CC(C)(C)C1CCN(C(=O)Nc2cc(F)c(C(=O)NC3CCCC3)c(-c3nn[nH]n3)c2)CC1 [Compound 53, 4-(tert-butyl)-N-(4-(cyclopentylaminoformyl)-3-fluoro-5-(2H-tetrazol-5-yl)phenyl)piperidine-1-carboxamide] in this work.
An IC50 of 67.9 nM was found for Cc1ccc(NC(=O)c2c(F)cc(NC(=O)N3CCC(C(C)(C)C)CC3)cc2-c2nn[nH]n2)nc1 [Compound 54, 4-(tert-butyl)-N-(3-fluoro-4-((5-methylpyridin-2-yl)aminoformyl)-5-(2H-tetrazol-5-yl)phenyl)piperidine-1-carboxamide] in this work.
An IC50 of 8.9 nM was found for Cc1ccc(-c2c(F)cc(NC(=O)N3CCC(C(C)(C)C)CC3)cc2-c2nn[nH]n2)cn1 [Compound 55, 4-(tert-butyl)-N-(3-fluoro-4-(6-methylpyrid-3-yl)-5-(2H-tetrazol-5-yl)phenyl)piperidine-1-carboxamide] in this work.
An IC50 of 7.6 nM was found for CC(C)Oc1ccc(-c2c(F)cc(NC(=O)N3CCC(C(C)(C)C)CC3)cc2-c2nn[nH]n2)cn1 [Compound 56, 4-(tert-butyl)-N-(3-fluoro-4-(6-isopropoxypyrid-3-yl)-5-(2H-tetrazol-5-yl)phenyl)piperidine-1-carboxamide] in this work.
An IC50 of 8.1 nM was found for CC(C)(C)c1cn(-c2c(F)cc(NC(=O)N3CCC(C(C)(C)C)CC3)cc2-c2nn[nH]n2)cn1 [Compound 57, 4-(tert-butyl)-N-(4-(4-(tert-butyl)-1H-imidazol-1-yl)-3-fluoro-5-(2H-tetrazol-5-yl)phenyl)piperidine-1-carboxamide] in this work.
An IC50 of 8.6 nM was found for CC(C)(C)c1cn(-c2ccc(NC(=O)N3CCC(C(C)(C)C)CC3)cc2-c2nn[nH]n2)cn1 [Compound 58, 4-(tert-butyl)-N-(4-(4-(tert-butyl)-1H-imidazol-1-yl)-3-(2H-tetrazol-5-yl)phenyl)piperidine-1-carboxamide] in this work.
An IC50 of 35.4 nM was found for COc1ccc(-c2ccc(NC(=O)NC3CCC(C(C)(C)C)CC3)cc2-c2nn[nH]n2)cc1OC (stereo not drawn) [Compound 59, 1-(4-(tert-butyl)cyclohexyl)-3-(3′,4′-dimethoxy-2-(2H-tetrazol-5-yl)-[1,1′-biphenyl]-4-yl)urea] in this work.
